A short description of data set [1]: Cyclic voltammetry in borate buffer at Hg/Cu/GC electrodes. The settings on record: for E1/2 / ipa/ipc / jpc (peak current density) / ΔEp: 0.5 mM, 50 mM borate buffer pH 9, 0.1M NaClO4.
Experimental: (§1) A Pt rod served as counter electrode, potentials refer to a (Ag/AgCl, 1 M NaCl) reference electrode. For each CV experiment at the mercury electrode, nine single measurements were recorded and averaged in order to minimize errors originating from drop size fluctuations. Copper electrodes were precleaned with 6 M HNO3 before use and equilibrated in electrolyte solution by running repetitive cycles. The planar glassy carbon electrode (Metrohm, 5 mm diameter) was polished on a polishing micro cloth (Buehler) with 0.05 μM alumina (Buehler) to a mirror like finish between the measurement series.
To avoid disturbing influences of local changes in pH within the diffusion layer of the electrodes, cyclic voltammetry with use of buffered solutions was performed.
A 100 mM NaClO4 background supporting electrolyte was used to maintain diffusion limited conditions and high solution conductivity. 50 mM boric acid was added to the NaClO4 supporting electrolyte and adjusted with NaOH to the desired pH value.
The nature of data set [2]: Cyclic voltammetry of Fe-EDDHA complexes in unbuffered 0.1 M NaClO4.
Experimental: In order to minimize undesired ligand exchange reactions and solely observe the effect of pH on the redox properties, 0.1 M NaClO4 was chosen as electrolyte for the first set of experiments.
as §1
For data set [3] the following is noted: literature (Yunta et al. 2003); in M-1·cm-1 (unit assumed); cited from earlier work.
Data set [4] is described as follows: Diffusion coefficients of ferric complexes from voltammetry. The settings on record: pH 9, borate buffer, this work. The format is physicochemical. On the procedure: The experiments also permit calculation of the diffusion coefficients (five solutions in the concentration range between 0.3 and 0.8 mM) (Table 3). Literature values for the Fe^3+ diffusion coefficient range from 3.3-6.5×10^−6 cm^2/s in acidic media to 8.6×10^−6 cm^2/s complexed as K3Fe(CN)6 in strongly basic media.

Data set [5] can be described thus: Molar absorptivity at 480 nm in borate buffer pH 9. The settings on record: borate buffer pH 9, five repetitions; in M-1·cm-1 (unit assumed). The format is physicochemical. The protocol: The molar absorptivity was determined in borate buffer solutions at pH 9 (five repetitions). To define the exact complex concentration an understoichiometric amount of ferric iron was used and the excess of free ligand was tolerated, as the ligand is not electroactive.

For data set [6] the following is noted: cited from earlier work.
The mark [7] stands for this setting: 0.5 mM, unbuffered 0.1M NaClO4, pH 9, Hg electrode.
Setting [8] is: 0.5 mM, unbuffered 0.1M NaClO4, pH 9, Hg electrode, vs Ag/AgCl 1 M NaCl.

Where two headings read alike, the source gives them in different places.

Take `O=C([O-])C(NCCNC(C(=O)[O-])c1ccccc1[O-])c1ccccc1[O-].[Fe+3]` (stereo not shown) [Fe-mesoEDDHA]: in data set [1] (Cu electrode), the E1/2 is −619 mV, the ipa/ipc was determined as 1.06, the “jpc (peak current density)” value was determined as 520 nA/mm^2 and the ΔEp was determined as 132 mV. In addition, in data set [1] (GC electrode), the E1/2 is −616 mV, the ipa/ipc is on record as 0.94 1, the “jpc (peak current density)” value stood at 817 nA/mm^2 and the ΔEp amounted to 67 mV. Also, in data set [1] (Hg electrode), the E1/2 was −615 mV, the ipa/ipc is 0.93 1, the “jpc (peak current density)” value is reported as 1167 nA/mm^2 and the ΔEp came to 64 mV. The “slope of E1/2 vs pH” value in data set [1] (borate buffered solution, below pH 8 (racemic) / below pH 9 (meso)) is −38 mV/pH. Further, the redox potential in data set [1] (pH 9, vs Ag/AgCl 1 M NaCl reference electrode) is reported as −615 mV. In data set [2] (setting [7]), this molecule registered an ipa of 255 nA, an ipa/ipc of 0.93, an ipc of −275 nA and a ΔEP of 72 mV. In data set [2] (setting [8]), this molecule registered an E1/2 of −621 mV, an Epa of −585 mV and an Epc of −657 mV. Also, the “pH range in which the voltammograms were independent on pH” value in data set [2] (unbuffered 0.1 M NaClO4) is on record as 6-9. Besides, the “pH above which the complex hydrolyses” value in data set [2] (without buffer) is more than 9. Also, the “Molar absorptivity (ε480 nm), lit.” value in data set [3] is 4574 ± 53. Also, the “Diffusion coefficient Do” value in data set [4] is given as 5.78 10^−6 cm^2/s. Besides, in data set [5], the “Molar absorptivity (ε480 nm), this work” value stood at 4546 ± 120.

Consider `[Fe+3]` [Fe^3+], for which, in data set [6] (acidic media), the “Diffusion coefficient, literature values” is 3.3-6.5 ×10^−6 cm^2/s. Also, in data set [6] (pH 0-1, source a (literature)), the “Diffusion coefficient Do” value was 3.3-6.5 10^−6 cm^2/s.

The values above are taken from patent publication US12489120B2, “Redox flow battery” (ELECTROCHEM, S.L., priority 2019, dated 2025).
